Test results taken from US20260167659A1, “STING AGONISTS” (LIGACHEM BIOSCIENCES INC., priority 2022, published 2026).

Columns and labels:
hSTING HAQ variant = target: T1, hSTING HAQ variant (Homo sapiens, UniProt Q86WV6, G230A/H232R/R293Q/R71H); experiment: STING activation, THP1-Dual IRF3 reporter assay, hSTING-HAQ cells; assay type: cell-based; conditions: IRF3 luciferase reporter, 24 hours, read-out: STING activity using hSTING-HAQ cells, HAQ EC50
T1 construct: host or cells: THP1-Dual cells (human monocytes)
Description: To assess potency of STING agonist compounds described herein, THP1-Dual™ Cells (NF—KB-SEAP and IRF-Lucia luciferase reporter monocytes, InvivoGen) were used. The reporter cells were knocked-in either of hSTING-WT (R232, #thpd-r232), HAQ variant (#thpd-nfis), or H232 variant (#thpd-h232). All cells were cultured at 37° C. in a humidified incubator at 5% CO2 and maintained in RPMI 1640 medium (Gibco, #22400097) supplemented with 10% heat-inactivated FBS and 1×Pen-Strep (Gibco, #15140122). To measure STING agonist-mediated IRF3 activity, the cells (9.0×10^4 cells per well) were seeded in a flat-bottomed 96-well plate. The next day, the cells were treated with compounds in a serial dilution for 24 hours. Subsequently, 20 μL of the cell culture supernatant and 50 μL of the QUANTI-Luc™ reagent (InvivoGen, #rep-qlc) were mixed in a 96-well white plate and then, luciferase activity was measured using an EnVision Xcite multilabel reader. The data were analyzed using Prism8 software (4-parameter).
The potency of STING agonist compounds was evaluated by the activation of Type I Interferon pathway using THP-1 IRF3 reporter assay.

EMT6 cells = experiment: In vivo efficacy, EMT6 syngeneic mouse model; set-up: species or system BALB/c mice; conditions: FIG. 12
Description: Female BALB/c mice (KOTECH, South Korea) with 6 weeks of age, were used for all studies that were completed under the approval of the Legochembio Science's Institutional Animal Care and Use Committee (IACUC). CT26 or EMT6 cells (American Type Culture Collection (ATCC), #CRL-2638, #CRL-2755) were maintained in RPMI 1640 medium (Gibco, #22400097) supplemented with 10% heat-inactivated FBS and 1× Antibiotic-Antimycotic (Gibco, #15240062) at 37° C. with 5% CO2. The mycoplasma-negative cells were used for all experiments and mycoplasma test was done regularly using e-Myco™ VALiD Mycoplasma PCR Detection Kit (iNtRON biotechnology, #25239). CT26 cells (2×10^5 cells/mouse) or EMT6 cells (5×10^5 cells/mouse) in PBS were implanted subcutaneously into the shaved right flank. Tumor volumes and body weights were measured every 3 to 4 days, and the tomor volumes were calculated according to the formula 0.5×(length)×(width)^2.
Specifically, to determine in vivo efficacy of STING agonist compounds (Compound 214 and 221) in CT26 syngeneic mouse model, when tumor volume reached 70 mm^3, each compound was given at 1.5 mg/kg intravenously every 3 or 4 days (total three times). […] To determine in vivo efficacy of STING agonist compound (Compound 313) in EMT6 syngeneic mouse model, when tumor volume 100 mm^3, the compound was given at the indicated doses intravenously once weekly for 3 weeks except for the dose at 0.05 mg/kg twice a week.
A syngeneic system was used to assess the ability of the STING agonist compounds to induce immune responses and drive an anti-tumor immune response. In both CT26 and EMT6 syngeneic models, the STING agonist compounds remarkably controlled tumor growth at various doses (FIGS. 7 to 12).
Compound 313 also eliminated tumors in all groups (1 out of 5 for 0.05 mg/kg, 2 out of 5 for 0.1 mg/kg, 5 out of 5 for both 0.3 and 0.6 mg/kg) in EMT6 model (FIG. 12).

T1 sequence (Q86WV6 whole entry R71H/G230A/H232R/R293Q): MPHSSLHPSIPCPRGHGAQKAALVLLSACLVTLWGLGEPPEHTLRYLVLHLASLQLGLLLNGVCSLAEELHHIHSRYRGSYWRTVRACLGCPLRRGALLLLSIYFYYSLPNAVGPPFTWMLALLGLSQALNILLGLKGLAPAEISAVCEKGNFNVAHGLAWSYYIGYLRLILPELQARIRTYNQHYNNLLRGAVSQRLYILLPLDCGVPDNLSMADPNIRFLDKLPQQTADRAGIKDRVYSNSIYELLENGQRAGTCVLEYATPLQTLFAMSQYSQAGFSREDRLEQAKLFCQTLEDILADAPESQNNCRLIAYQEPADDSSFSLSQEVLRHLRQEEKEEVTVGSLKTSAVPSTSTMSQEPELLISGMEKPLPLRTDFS

CCn1nc(C)cc1C(=O)Nc1nc2cc(C(N)=O)cc(OC/C=C/Cn3cc(NC(=O)OCc4ccc(O[C@@H]5O[C@H](C(=O)O)[C@@H](O)[C@H](O)[C@H]5O)c(C(=O)NCCOCCOCCN(C)C)c4)cn3)c2n1C/C=C/Cn1c(NC(=O)c2cc(C)nn2CC)nc2cc(C(N)=O)cc(OCCCC(=O)O)c21 [Compound 313] was tested, and the EC50 (hSTING HAQ variant) was 115 nM, the “mice with tumors eliminated” value (EMT6 cells; 0.05 mg/kg intravenously twice a week) was 1 out of 5 and the “mice with tumors eliminated” value (EMT6 cells; 0.1 mg/kg intravenously once weekly for 3 weeks) was 2 out of 5. The “mice with tumors eliminated” value (EMT6 cells; 0.3 mg/kg intravenously once weekly for 3 weeks) was 5 out of 5 and the “mice with tumors eliminated” value (EMT6 cells; 0.6 mg/kg intravenously once weekly for 3 weeks) was 5 out of 5.
